The test system of data set [1] is CCl4-induced hepatotoxicity. The experiment in a line: Protection against CCl4-induced hepatotoxicity (mice). Type of data set: in vivo, mice (four-week-old male, dd strain). The following applies: 250 mg/kg oral, average of 5 to 6 mice; for Liver damage index: CCl4 0.05 ml/kg oral after 6 h, 24 h after CCl4, scale 0 Normal, 2 Slightly recognized, 4 Clearly observable damage, 6 Heavy damage, CCl4 alone 5.2, control 0; for p-GPT: plasma, 24 h after CCl4 0.05 ml/kg oral, values over 1,000 regarded as 1,000, CCl4 alone >1,000, control 35. From the text: Carbon tetrachloride (CCl4) administration induces centrilobular necrosis of the liver associated with loss of diphosphopyridine nucleotide, hepatic glycogen, coenzyme A and increase in neutral fat. Release of several enzymes from the hepatocytes, and increase of enzyme activities in the plasma are recognized as the result of the damage of the liver. A suitable means for evaluating the degree of damage induced by CCl4 or the degree of protection afforded by drugs is to study the plasma glutamic-pyruvic transaminase(p-GPT) activity.
Methods: The test compounds were dissolved or suspended in olive oil and administered orally at the dose of 250 mg/kg to the mice (Four-week-old male mice-dd strain). After 6 hours, CCl4 was administered orally (0.05 ml/kg as olive oil solution). Animals were killed 24 hours after CCl4 administration, and the liver was grossly observed. The plasma was obtained by centrifugation. Activities of p-GPT were determined by the method of Reitman and Frankels and expressed in Karmen units. Score for liver damage index was as follows:
Each figure indicates average of 5 to 6 mice. Values of p-GPT over 1,000 Karmen unit regarded as 1,000 for calculation of average for convenience.

Data set [2] deals with thioacetamide-induced hepatotoxicity. The experiment in a line: Therapeutic effect against thioacetamide-induced hepatotoxicity, BSP test (rats). Format: in vivo, rats (Sprague Dawley strain). The protocol: In the tests of this Example, TAA was repeatedly administered to animals to prepare test animals suffering from somewhat chronic liver damages, and then the present compounds were administered thereto to know whether or not the compounds were effective against chronic hepatitis.
The degree of the liver damage and the therapeutic effects of the compounds were evaluated according to BSP test. The BSP test is a method in which BSP (sulfobromophthalein sodium), a dye known to be quickly metabolized in and excreted from the liver, is intravenously injected into animals and, after a definite period of time, the blood is taken out to measure the amount of BSP remaining in the plasma. In case the animals are suffering from the liver damage, the dye will remain, according to the degree of the damage, at the stage where a major portion of BSP is metabolized and excreted in the case of normal animals. Five groups of rats (Sprague Dawley strain) were treated as follows:
Group A: The rats were orally administered with 100 mg/kg of thioacetamide,at 3 days intervals for 36 days (12 times of the administration), then were submitted for 10 days to a normal diet.
Group B: The rats were orally administered with 100 mg/kg of thioacetamide at 3 days intervals for 36 days (12 times of the administration), then were submitted for 10 days to the normal diet + 0.2% of compound 4.
Group C: The rats were orally administered with 100 mg/kg of thioacetamide at 3 days intervals for 36 days (12 times of the administration) then were submitted for 10 days to the normal diet + 0.2% of compound 2.
Group D: The rats were orally administered with 100 mg/kg of thioacetamide at 3 days intervals for 36 days((12 times of the administration) then were submitted for 10 days to the normal diet + 0.2% of anethol trithion.
Group E: The rats were submitted to the normal diet as the control.
Five rate were sacrificed from each group at appropriate intervals for BSP (sulfobromophthalein) test, the results of which were shown as amounts (mg) of BSP remaining in 1 dl of plasma.

The test system of data set [3] is glucose metabolic function of liver. In words: Effect on glucose metabolism, blood sugar (mice). Format: in vivo. Conditions: 250 mg/kg oral pre-treatment, glucose 4.0 g/kg oral after 6 h. The protocol: Methods: The test compounds dissolved in olive oil and administered orally at the dose of 250 mg/kg to the mice. After 6 hours, 4.0 g/kg of glucose was orally administered. The same amount of glucose was given to the control animals. 0.02 ml of blood was taken from caudal vein of the mice at 30, 60, 90 and 120 min. after glucose administration. Blood sugar was measured by the procedure of SomogyiNelson. Number of animals used was 5 to 6 mice for each treatment.

In data set [4] the test system is alcohol metabolic function of liver. The experiment in a line: Effect on concentration of ethylalcohol in the blood (mice). Format: in vivo. Conditions: 250 mg/kg oral pre-treatment, ethylalcohol 1,000 mg/kg oral after 6 h. The protocol:
The test compounds are dissolved or suspended in olive oil and administered orally at the dose of 250 mg/kg to the mice. After 6 hours, 1,000 mg/kg of ethylalcohol was given orally. Blood was taken in a capillary from caudal vein at the time indicated in the results. The plasma was obtained by centrifugation. The concentration of ethylalcohol in the plasma was measured by FID type gas liquid chromatography. Five mice were used for each group.

Data set [5] can be described thus: Acute oral toxicity (LD50) to male mice. The following applies: mouse, in vivo. The procedure: For example the LD50 values of the compounds 4, 11 and 17 in Table 1 are more than 5,000 mg/kg. Further, these compounds have no detrimental effects on test animals administered therewith, so far as the doses thereof are within an ordinary administration range.
[6] abbreviates: 2 days of normal diet + 0.2% compound after 12 TAA administrations, TAA only 12.7±3.7, normal 0.4±0.1.
Setting [7] is: 5 days of normal diet + 0.2% compound after 12 TAA administrations, TAA only 8.7±1.9.
[8] abbreviates: 10 days of normal diet + 0.2% compound after 12 TAA administrations, TAA only 1.4±0.4, normal 0.6±0.1.

Some results are limits rather than exact numbers.

Take `CCCCOC(=O)C(C(=O)OCCCC)=C1SCCCCS1` [Compound 18]: in data set [1], the Liver damage index was 0.5 and the p-GPT stood at 41 Karmen units.

In data set [1], `COC(=O)C(C(=O)OC)=C1SCCCCS1` [Compound 14] registered a Liver damage index of 3.5 and a p-GPT of 762 Karmen units.

In data set [1], `CCCOC(=O)C(C(=O)OCCC)=C1SCCCCS1` [Compound 16] came in with a Liver damage index of 3.0 and a p-GPT of 710 Karmen units.

`CCCCCOC(=O)C(C(=O)OCCCCC)=C1SCCCCS1` [Compound 19]: in data set [1], the Liver damage index stood at 0.7 and the p-GPT amounted to 157 Karmen units.

`COC(=O)C(C(=O)OC)=C1SCS1` [Compound 1]: in data set [1], the Liver damage index was determined as 1.5 and the p-GPT was found to be 341 Karmen units.

`CCOC(=O)C(C(=O)OCC)=C1SCS1` [Compound 2]: the “BSP remaining in plasma” value in data set [2] (setting [6]) was 7.5 ± 1.2 mg/dL; in data set [2] (setting [7]), 3.8 ± 0.4 mg/dL; in data set [2] (setting [8]), 0.7 ± 0.1 mg/dL. The compound further returned a Liver damage index in data set [1] of 0.3. Besides, the p-GPT in data set [1] was found to be 29 Karmen units. For the same compound, the “Blood Sugar” value in data set [3] (0 min, control 145 ± 11.8) was determined as 142 ± 22.8 mg/dL; in data set [3] (30 min, control 311 ± 21.9) it was 258 ± 17.5 mg/dL; in data set [3] (60 min, control 290 ± 14.6), 229 ± 18.7 mg/dL; in data set [3] (90 min, control 263 ± 13.1) it was 183 ± 18.1 mg/dL; in data set [3] (120 min, control 251 ± 13.5), 150 ± 20.4 mg/dL. For the same compound, the “Concentration of Ethylalcohol in Plasma” value in data set [4] (0 min, control 27 ± 17) worked out at 11 ± 4 ppm; in data set [4] (5 min, control 875 ± 203) it was 714 ± 167 ppm; in data set [4] (15 min, control 810 ± 191) it was 655 ± 102 ppm; in data set [4] (30 min, control 690 ± 214) it was 426 ± 101 ppm; in data set [4] (60 min, control 167 ± 76), 15 ± 10 ppm.

For the compound `CCCCOC(=O)C(C(=O)OCCCC)=C1SCCCS1` [Compound 12], in data set [1], the Liver damage index was 1.8 and the p-GPT came to 284 Karmen units.

In data set [1], `CCOC(=O)C(C(=O)OC(C)(C)C)=C1SCCCS1` [Compound 13] had a Liver damage index of 1.4 and a p-GPT of 125 Karmen units.

As for `CCCCCOC(=O)C(C(=O)OCCCCC)=C1SCS1` [Compound 6], in data set [1], the Liver damage index is listed as 1.2 and the p-GPT is given as 167 Karmen units.

In data set [1], `CCCOC(=O)C(C(=O)OCCC)=C1SCS1` [Compound 3, Di-n-propyl 1,3-dithietan-2-ylidene malonate] gave a Liver damage index of 0.2 and a p-GPT of 22 Karmen units.

In the case of `COc1ccc(-c2cc(=S)ss2)cc1` [Anetol trithion, anethol trithion, reference compound], the “BSP remaining in plasma” value came out at 9.7 ± 4.1 mg/dL in data set [2] (setting [6]), 7.3 ± 3.4 mg/dL in data set [2] (setting [7]) and 0.9 ± 0.1 mg/dL in data set [2] (setting [8]). In data set [1], this compound gave a Liver damage index of 1.6. For the same compound, the p-GPT in data set [1] is reported as 38 Karmen units.

In data set [1], `COC(=O)C(C(=O)OC)=C1SCCCS1` [Compound 8] gave a Liver damage index of 2.8 and a p-GPT of 437 Karmen units.

Regarding `CCOC(=O)C(C(=O)OCC)=C1SCCCS1` [Compound 9], in data set [1], the Liver damage index amounted to 2.2 and the p-GPT amounted to 366 Karmen units.

In data set [1], `CCOC(=O)C(C(=O)OC(C)C)=C1SCS1` [Compound 7] registered a Liver damage index of 0.6 and a p-GPT of 54 Karmen units.

In data set [1], `CCCOC(=O)C(C(=O)OCCC)=C1SCCCS1` [Compound 10, Di-n-propyl 1,3-dithian-2-ylidene malonate] gave a Liver damage index of 2.2. In addition, the p-GPT in data set [1] is listed as 50 Karmen units. Besides, the “Blood Sugar” value stood at 148 ± 14.7 mg/dL in data set [3] (0 min, control 145 ± 11.8); 267 ± 21.2 mg/dL in data set [3] (30 min, control 311 ± 21.9); 222 ± 18.3 mg/dL in data set [3] (60 min, control 290 ± 14.6); 162 ± 14.4 mg/dL in data set [3] (90 min, control 263 ± 13.1); 148 ± 18.8 mg/dL in data set [3] (120 min, control 251 ± 13.5). The “Concentration of Ethylalcohol in Plasma” value is 13 ± 4 ppm in data set [4] (0 min, control 27 ± 17); 753 ± 78 ppm in data set [4] (5 min, control 875 ± 203); 698 ± 95 ppm in data set [4] (15 min, control 810 ± 191); 451 ± 114 ppm in data set [4] (30 min, control 690 ± 214); 12 ± 11 ppm in data set [4] (60 min, control 167 ± 76).

`CC(C)OC(=O)C(C(=O)OC(C)C)=C1SCCCCS1` [Compound 17, diisopropyl 1,3-dithiepan-2-ylidene malonate]: in data set [1], the Liver damage index amounted to 3.6 and the p-GPT was 688 Karmen units. Further, the LD50 – broadly, the dose expected to kill half of the subjects tested – in data set [5] is above 5000 mg/kg.

With `CCCCOC(=O)C(C(=O)OCCCC)=C1SCS1` [Compound 5], in data set [1], the Liver damage index is given as 1.2 and the p-GPT was determined as 158 Karmen units.

In data set [1], `CC(C)OC(=O)C(C(=O)OC(C)C)=C1SCCCS1` [Compound 11, Diisopropyl 1,3-dithian-2-ylidene malonate] showed a Liver damage index of 2.3 and a p-GPT of 215 Karmen units. The LD50 in data set [5] was above 5000 mg/kg.

`CCOC(=O)C(C(=O)OC(C)CC)=C1SCCCCS1` (stereo not drawn) [Compound 20] yielded a Liver damage index in data set [1] of 1.0. This compound showed a p-GPT in data set [1] of 188 Karmen units. In addition, the “Concentration of Ethylalcohol in Plasma” value in data set [4] (0 min, control 27 ± 17) is given as 15 ± 2 ppm; in data set [4] (5 min, control 875 ± 203), 710 ± 134 ppm; in data set [4] (15 min, control 810 ± 191), 652 ± 143 ppm; in data set [4] (30 min, control 690 ± 214), 404 ± 93 ppm; in data set [4] (60 min, control 167 ± 76), 18 ± 6 ppm.

In data set [1], `NC(=O)CCCCC1CCSS1` (stereo not drawn) [Thioctic acid amide, reference compound] displayed a Liver damage index of 4.8 and a p-GPT of 763 Karmen units.

As for `CCOC(=O)C(C(=O)OCC)=C1SCCCCS1` [Compound 15], in data set [1], the Liver damage index amounted to 3.2 and the p-GPT is recorded as 533 Karmen units.

For the origin of these results see patent publication US4022907A, “Pharmaceutical compositions containing 1,3-dithiacycloalkylidene malonates” (Nihon Nohyaku Co. Ltd., priority 1975, dated 1977).
